Key:
[1] = tested on: colorectal (HCT116), breast (MCF-7) and non-small cell lung (H1299, A549, H358 and H460) cell line models; test: Colony forming assay; type: cell-based; conditions: increasing concentrations of FUdR between 0.5 and 2.5 μmon; all cell lines evaluated
Description: Colony forming assay showing the ability of colon (SW620, HCT116), non-small cell lung (A549, H460, H1299 and H358) and breast (MCF7) cancer cells to survive and proliferate following transient 24 hour exposure to test compounds, FUdR and combinations are determined. Specifically, cells are seeded at densities between 50 and 100 cells/well in 24-well plates. […] After 24 hours, drug is removed, cells are rinsed and allowed to outgrow for 10-14 days. At the conclusion of the outgrowth, cells are fixed in 60% ice cold methanol and stained with 0.1% crystal violet, scanned and counted. Data is presented as percentage of untreated controls (mean±SD). Fraction affected and combination indexes are calculated according to the method of Chou and Talalay where <1 is indicative of a synergistic drug interaction.
In colorectal cancer cells, concentrations of test compounds ranging e.g., from 3.1 μmol/L to 50 μmol/L are combined with 0.5 μmol/L FUdR in HCT116 cells and 1 μmol/L FUdR in SW620 cells.

[2] = tested on: colorectal (HCT116 and SW620) cell line models; test: MTS growth inhibition assay; type: cell-based; conditions: increasing concentrations of 5-FU between 0 and 100 μmol/L; both colorectal cancer cell lines evaluated
Description: The Cell Titer AQueous MTS assay (Promega) is carried out according to the manufacturers guidelines. […] The combination effect is determined by the combination index (CI) method utilizing Calcusyn software (Biosoft, Ferguson, Mo.). Fraction affected (FA) is calculated from the percent growth inhibition: FA=[…]. CI values <1, synergism; 1-1.2, additive and >1.2, antagonism.
MTS growth inhibition assays are performed to evaluate the effectiveness of the test compounds alone and in combination with the fluoropyrimidine thymidylate synthase (TS) inhibitor 5-fluorouracil (5-FU) at inhibiting the growth of colorectal (HCT116 and SW620) cell line models. […] Simultaneous treatment with increasing concentrations of 5-FU and a test compound at fixed concentrations of 25 μmol/L is determined.

O=c1[nH]c(=O)n([C@H]2C[C@H](O)[C@@H](CO)O2)cc1F [FUdR, fluorodeoxyuridine]
colonies formed [1]: dose-dependent decreases in colonies formed

O=c1[nH]cc(F)c(=O)[nH]1 [Example 5-FU, 5-fluorouracil]
growth inhibition [2]: dose-dependent increases in growth inhibition
